Source: patent US20030068282A1, “Composition” (Unilever Home & Personal Care USA, Division of Conopco, Inc., priority 2001, published 2003)

Assay: salivary sediment model: amount of n-octyl paraben delivered from toothpaste to salivary sediment
Assay type: in vitro ADME
Details: for amount of paraben delivered, Rep 1 / amount of paraben delivered, Rep 2 / amount of paraben delivered, Mean: toothpaste with 1.1% n-octyl paraben; for amount of paraben delivered, Rep 1 / amount of paraben delivered, Rep 2: ex-vivo samples; for amount of paraben delivered, Mean: mean of two repetitions
Method: Standard toothpastes comprising SLS and n-octyl paraben were tested in a salivary sediment model similar to that described by R. L. Wijeijweera and I. Kleinberg in Archs. Oral Biol., Vol. 34, No. 1, 1989, pages 43-53, using ex-vivo samples and measuring the amount of n-octyl paraben delivered to the salivary sediment.
Two repetitions were carried out for each SLS level in a paste comprising 1.1% n-octyl paraben. The values represnet the amount (ppm per ml sediment suspension) of paraben delivered.

## CCCCCCCCOC(=O)c1ccc(O)cc1 [n-octyl paraben]
SLS levels 1.4 and 1.6% compared with 1.8%
  level of paraben delivered, comparison between SLS levels: greater at SLS levels ranging at 1.4 and 1.6% than for 1.8%
1.4% SLS in base
  amount of paraben delivered, Rep 1: 60.080 ppm per ml sediment suspension
  amount of paraben delivered, Rep 2: 61.657 ppm per ml sediment suspension
  amount of paraben delivered, Mean: 60.869 ppm per ml sediment suspension
1.6% SLS in base
  amount of paraben delivered, Rep 1: 59.534 ppm per ml sediment suspension
  amount of paraben delivered, Rep 2: 63.775 ppm per ml sediment suspension
  amount of paraben delivered, Mean: 61.654 ppm per ml sediment suspension
1.8% SLS in base
  amount of paraben delivered, Rep 1: 48.790 ppm per ml sediment suspension
  amount of paraben delivered, Rep 2: 48.352 ppm per ml sediment suspension
  amount of paraben delivered, Mean: 48.571 ppm per ml sediment suspension
